Conditions: human, in vivo, 4.5 mg/kg

Question: For `COc1cc(/C=C/C(=O)CC(=O)/C=C/c2ccc(O)c(OC)c2)ccc1O` [curcumin, diferuloylmethane], which blood plasma levels is on record?
Answer: The blood plasma levels was 5 to 11 µmol.

From patent US9138411B2 (University of North Texas Health Science Center, priority 2012, dated 2015)
